From ChEMBL document CHEMBL5465560, “Selectivity Literature for EUbOPEN Chemogenomic Library” (2024) come the findings set out here.

Some results are limits rather than exact numbers.

For assay [1], the system named is Hepatocyte growth factor receptor (Homo sapiens), P08581 [M1250T]. Put plainly: Selectivity interaction (SelectScreen profiling (Invitrogen)) EUB0000607a MET. Particulars: at 2 µM.
Assay [2] concerns the target T1, Dual specificity tyrosine-phosphorylation-regulated kinase 2 (Homo sapiens) (UniProt Q92630).
T1 sequence (whole entry): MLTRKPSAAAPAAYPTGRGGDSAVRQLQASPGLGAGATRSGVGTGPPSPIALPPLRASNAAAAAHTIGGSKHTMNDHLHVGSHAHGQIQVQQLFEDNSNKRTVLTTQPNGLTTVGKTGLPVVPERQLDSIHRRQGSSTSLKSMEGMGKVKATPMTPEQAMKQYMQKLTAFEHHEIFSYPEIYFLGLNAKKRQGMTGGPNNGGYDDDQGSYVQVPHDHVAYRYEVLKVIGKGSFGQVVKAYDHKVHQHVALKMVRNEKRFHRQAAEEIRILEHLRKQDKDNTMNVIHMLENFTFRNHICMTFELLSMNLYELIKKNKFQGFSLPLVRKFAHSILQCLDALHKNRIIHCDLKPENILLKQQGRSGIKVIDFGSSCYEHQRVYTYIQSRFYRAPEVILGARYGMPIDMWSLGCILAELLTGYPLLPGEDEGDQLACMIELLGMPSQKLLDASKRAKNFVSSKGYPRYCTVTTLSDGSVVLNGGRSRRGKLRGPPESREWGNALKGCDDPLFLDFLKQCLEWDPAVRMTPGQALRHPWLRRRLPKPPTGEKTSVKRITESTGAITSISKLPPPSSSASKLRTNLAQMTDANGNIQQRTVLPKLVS
Nature of the assay: Selectivity interaction (KinomeScan (DiscoverX)) EUB0000655a DYRK2. The note with it: at 10 µM.

In assay [3] the target is T2, Peregrin (Homo sapiens) (UniProt P55201).
T2 sequence (whole entry): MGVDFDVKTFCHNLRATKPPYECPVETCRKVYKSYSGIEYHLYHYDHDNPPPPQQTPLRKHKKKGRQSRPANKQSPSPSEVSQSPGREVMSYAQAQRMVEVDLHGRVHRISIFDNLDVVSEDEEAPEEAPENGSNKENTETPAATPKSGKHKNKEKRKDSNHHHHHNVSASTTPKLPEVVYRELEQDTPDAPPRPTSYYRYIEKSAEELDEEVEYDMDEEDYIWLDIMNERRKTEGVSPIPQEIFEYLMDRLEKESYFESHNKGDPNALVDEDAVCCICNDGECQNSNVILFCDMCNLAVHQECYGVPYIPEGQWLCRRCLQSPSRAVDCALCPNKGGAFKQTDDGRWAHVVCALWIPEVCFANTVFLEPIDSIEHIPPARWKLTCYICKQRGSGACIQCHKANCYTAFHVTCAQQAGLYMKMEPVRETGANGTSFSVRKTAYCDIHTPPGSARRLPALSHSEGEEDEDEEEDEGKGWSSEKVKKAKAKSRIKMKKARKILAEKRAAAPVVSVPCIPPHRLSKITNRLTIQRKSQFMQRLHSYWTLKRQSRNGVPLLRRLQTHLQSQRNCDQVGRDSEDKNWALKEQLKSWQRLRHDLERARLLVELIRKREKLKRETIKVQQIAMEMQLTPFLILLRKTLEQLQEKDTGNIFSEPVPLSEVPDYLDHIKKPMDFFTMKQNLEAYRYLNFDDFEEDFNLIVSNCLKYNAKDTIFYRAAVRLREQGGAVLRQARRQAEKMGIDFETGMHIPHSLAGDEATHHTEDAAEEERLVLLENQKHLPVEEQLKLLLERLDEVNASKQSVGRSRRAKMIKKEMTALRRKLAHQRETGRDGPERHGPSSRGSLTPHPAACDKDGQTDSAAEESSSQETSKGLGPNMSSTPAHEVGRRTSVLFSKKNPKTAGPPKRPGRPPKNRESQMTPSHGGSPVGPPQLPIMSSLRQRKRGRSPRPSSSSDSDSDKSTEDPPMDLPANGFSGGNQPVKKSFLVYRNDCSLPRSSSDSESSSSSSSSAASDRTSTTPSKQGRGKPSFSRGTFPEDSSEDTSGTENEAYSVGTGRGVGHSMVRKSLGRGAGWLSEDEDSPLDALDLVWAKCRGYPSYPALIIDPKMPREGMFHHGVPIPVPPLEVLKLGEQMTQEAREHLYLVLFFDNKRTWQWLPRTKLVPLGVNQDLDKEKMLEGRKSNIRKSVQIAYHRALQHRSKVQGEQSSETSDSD
Put plainly: Selectivity interaction (Bromodomain panel (DSF asssay)) EUB0000270b BRPF1.

Assay [4] has as its target T3, cGMP-dependent protein kinase 2 (Homo sapiens) (UniProt Q13237).
T3 sequence (whole entry): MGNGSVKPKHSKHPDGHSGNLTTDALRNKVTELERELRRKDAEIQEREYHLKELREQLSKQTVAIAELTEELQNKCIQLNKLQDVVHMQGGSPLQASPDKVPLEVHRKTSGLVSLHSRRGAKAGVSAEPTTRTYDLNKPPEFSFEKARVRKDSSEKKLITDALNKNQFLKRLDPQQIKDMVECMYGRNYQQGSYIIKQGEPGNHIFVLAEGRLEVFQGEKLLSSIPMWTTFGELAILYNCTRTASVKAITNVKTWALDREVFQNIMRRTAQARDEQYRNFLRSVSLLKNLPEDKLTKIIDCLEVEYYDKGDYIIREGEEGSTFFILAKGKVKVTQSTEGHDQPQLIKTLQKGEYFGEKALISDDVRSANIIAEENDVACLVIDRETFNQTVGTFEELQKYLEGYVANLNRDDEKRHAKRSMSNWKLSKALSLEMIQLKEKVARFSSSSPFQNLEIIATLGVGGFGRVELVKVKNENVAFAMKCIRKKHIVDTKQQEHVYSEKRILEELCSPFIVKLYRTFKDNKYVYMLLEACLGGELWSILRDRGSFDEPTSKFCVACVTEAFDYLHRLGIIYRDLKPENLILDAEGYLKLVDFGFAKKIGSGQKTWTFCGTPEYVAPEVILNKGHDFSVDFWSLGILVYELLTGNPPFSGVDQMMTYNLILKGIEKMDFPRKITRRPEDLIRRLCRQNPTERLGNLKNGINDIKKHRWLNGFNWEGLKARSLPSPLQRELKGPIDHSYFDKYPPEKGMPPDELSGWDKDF
Put plainly: Selectivity interaction (KinomeScan (DiscoverX)) EUB0000618a PRKG2. Particulars: at 10 µM.

Assay [5] concerns the target Glutamate receptor ionotropic, NMDA 1 (Homo sapiens) (UniProt Q05586). Nature of the assay: Selectivity interaction (Panel of kinases, GPCRs, ion channels and transporters (enzymatic assay)) EUB0000266bCl GRIN1.

Hepatocyte growth factor receptor (Homo sapiens), P08581 [M1250T], sequence (P08581 whole entry M1250T): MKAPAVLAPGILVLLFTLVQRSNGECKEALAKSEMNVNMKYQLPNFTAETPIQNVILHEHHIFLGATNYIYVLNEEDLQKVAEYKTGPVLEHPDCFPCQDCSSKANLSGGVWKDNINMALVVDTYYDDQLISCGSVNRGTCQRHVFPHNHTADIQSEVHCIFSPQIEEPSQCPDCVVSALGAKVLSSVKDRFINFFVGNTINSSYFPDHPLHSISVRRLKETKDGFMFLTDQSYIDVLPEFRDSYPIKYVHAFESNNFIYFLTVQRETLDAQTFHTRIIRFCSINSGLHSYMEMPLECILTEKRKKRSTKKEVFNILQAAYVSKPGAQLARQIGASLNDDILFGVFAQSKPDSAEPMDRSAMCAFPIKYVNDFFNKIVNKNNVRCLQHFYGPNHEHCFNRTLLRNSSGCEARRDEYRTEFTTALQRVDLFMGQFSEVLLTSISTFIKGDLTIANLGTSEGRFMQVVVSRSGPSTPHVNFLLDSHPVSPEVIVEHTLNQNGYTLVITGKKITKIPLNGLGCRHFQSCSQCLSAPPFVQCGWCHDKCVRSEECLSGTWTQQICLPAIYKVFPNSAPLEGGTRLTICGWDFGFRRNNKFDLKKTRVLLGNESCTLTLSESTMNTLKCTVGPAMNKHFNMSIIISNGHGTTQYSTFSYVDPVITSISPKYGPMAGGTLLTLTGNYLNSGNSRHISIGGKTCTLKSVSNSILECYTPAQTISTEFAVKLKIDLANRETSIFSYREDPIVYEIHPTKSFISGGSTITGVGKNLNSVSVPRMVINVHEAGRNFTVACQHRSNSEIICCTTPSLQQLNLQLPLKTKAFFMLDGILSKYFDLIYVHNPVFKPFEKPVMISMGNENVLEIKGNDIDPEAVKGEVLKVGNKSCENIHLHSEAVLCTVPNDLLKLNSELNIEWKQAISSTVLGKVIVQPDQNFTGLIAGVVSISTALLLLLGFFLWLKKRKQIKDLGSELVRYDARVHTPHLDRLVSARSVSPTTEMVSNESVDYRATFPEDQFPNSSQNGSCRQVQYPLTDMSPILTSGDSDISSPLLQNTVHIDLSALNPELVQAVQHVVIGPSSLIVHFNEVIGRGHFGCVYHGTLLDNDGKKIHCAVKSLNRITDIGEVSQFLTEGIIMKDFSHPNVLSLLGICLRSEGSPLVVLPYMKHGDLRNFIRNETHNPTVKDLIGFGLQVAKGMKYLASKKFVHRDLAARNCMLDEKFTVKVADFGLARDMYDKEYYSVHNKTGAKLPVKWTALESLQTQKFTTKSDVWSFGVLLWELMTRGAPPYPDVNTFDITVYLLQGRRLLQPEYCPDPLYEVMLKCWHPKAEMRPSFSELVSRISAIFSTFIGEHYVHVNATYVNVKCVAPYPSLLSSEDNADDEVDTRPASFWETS

With `CNC(=O)Nc1ccc(-c2nc(N3CC4CCC(C3)O4)c3cnn(C4CCC5(CC4)OCCO5)c3n2)cc1`, the % of inhibition in assay [1] came to 1%.
For the compound `CN(C)CCOc1ccc(-c2nc(-c3ccncc3)c(-c3ccc4c(c3)CC/C4=N\O)[nH]2)cc1`, in assay [2], the % of control turned out to be 98%.
With `Cc1cc(CN)cc(C)c1-c1ncn(C)c1-c1cncn1C`, in assay [3], the dTM was -1.75 K.
Take `O[C@H]1CC[C@H](Nc2ncc3nc(Nc4c(F)cc(F)cc4F)n([C@H]4CCOC4)c3n2)CC1`: the % of control in assay [4] was determined as 100%.
For `CCn1c(-c2nc3cc(C(=O)N4CCCC(N)C4)ccc3n2C)cc2ccccc21` (stereo not given), the pXC50 in assay [5] is under 4.3 M.
